Measured values published in US20160303095A1, “METHODS OF TREATING HEPATITIS B VIRUS” (Gilead Sciences, Inc., priority 2015, published 2016).
Where two headings read alike, the source gives them in different places.

Experiments:
[1] = test system: HBV; assay: PHH screening protocol: HBsAg and HBeAg levels by MSD ELISA; assay type: cell-based, Hepatitis B Virus; conditions: for EC50: Hepatitis B virus; for time dependency of anti HBV activity: PHH donor 8181 infected with patient virus 21p (GTA)
Method: HBV antiviral activity was assessed in primary human hepatocytes (PHH) in a 96-well format. PHH were (Life Technologies, Chicago, 11) plated on collagen coated tissue culture plates using Plating Media containing William's Medium E supplemented with 1% Penicillin/Streptomycin, 4 μg/mL human recombinant insulin, 2 mM glutamax, 15 mM Hepes, 1 μM dexamethasone and 5% fetal bovine serum (Life Technologies, Cat#A12176-01 Life Technologies, Chicago, Ill.). After a 4-hour incubation at 37° C., cells were switched to Maintenance Media (Cat#CM4000-A15564 Life Technologies, Chicago, Ill.) containing William's Medium E supplemented with 0.5% Penicillin/Streptomycin, 6.25 μg/mL human recombinant insulin, 6.25 μg/mL human transferrin, 6.25 ng/mL selenous acid, 1.25 mg/mL bovine serum albumin, 5.35 μg/mL linoleic acid, 2 mM glutamax, 15 mM Hepes, 0.1 μM dexamethasone, 2% fetal bovine serum, and 2% DMSO (Cat#D2650 Sigma, St. Louis, Mo.). On the next day, cells were infected with approximately 500 genome equivalent of selected HBV clinical isolates (21P (GTA), 32P (GTA), 91P (GTA), AD38 (GTD), 65P (GTD) or 30P (GTE); ProteoGenex, Culver City, Calif.) per cell in Maintenance Media supplemented with 4% PEG 8000 (Cat#V3011 Promega, Madison, Wis.). After 24 hour incubation cells were washed three times with William's Medium E and fed with fresh Maintenance Media. Small molecule inhibitors targeting KDMs were serially diluted in Maintenance Media and added to cells at 3 days post infection (p.i.). Media with compounds was replenished every 2-3 days. Media collected on various days was used for determination of HBsAg and HBeAg levels by MSD ELISA, and HBV RNA by qPCR. All data were converted into percentages of the untreated control and non-linear regression was performed to calculate EC50 or CC50 values.

[2] = target: T1, KDM5B (Homo sapiens, UniProt Q9UGL1); assay: Biochemical KDM inhibition assay (LANCE), KDM5B; conditions: read-out: Biochemical IC50 KDM 5B
T1 construct: host or cells: Sf9 cells
Method: (§1) Representative compounds were characterized for their inhibition of KDM5 using biotinylated histone substrates. Inhibition was measured in vitro (CEREP Poitier, Le Bois l'Evêque, France) following experimental conditions described in Table 2. Briefly, the test compound, reference compound or water (control) was mixed with about 2-20 ng of recombinant, Human enzymes expressed in Sf9 cells in a buffer containing 45 mM Hepes/Tris (pH 7), 5 μM FAS, 100 μM ascorbic acid, 10 μM 2-oxoglutarate, 0.01% Tween 20 and 0.01% BSA. Thereafter, the reaction was initiated by adding the biotin-labeled substrate, and the mixture was incubated for 10-30 min at room temperature. For basal control measurements, the enzyme was omitted from the reaction mixture. Following incubation the reaction was stopped by adding 1 mM EDTA. After 5 min, the anti-methyl histone antibody labeled with europium chelate and the Ulight streptavidine (Perkin Elmer Waltham, Mass.) were added. After 60 min more, the fluorescence transfer was measured at λex=320 nm and λem=620 and λem=665 nm using a microplate reader (Envision, Perkin Elmer) (LANCE). The enzyme activity was determined by dividing the signal measured at λem=665 nm by that measured at 620 nm (ratio).

[3] = target: KDM5A (Homo sapiens, UniProt P29375); assay: Biochemical KDM inhibition assay (LANCE), KDM5A; conditions: read-out: Biochemical IC50 KDM 5A
Method: as §1

[4] = target: T2, KDM4C (Homo sapiens, UniProt Q9H3R0); assay: Biochemical KDM inhibition assay (LANCE), KDM4C; conditions: read-out: Biochemical IC50 KDM 4C
T2 sequence (Q9H3R0 1-1056): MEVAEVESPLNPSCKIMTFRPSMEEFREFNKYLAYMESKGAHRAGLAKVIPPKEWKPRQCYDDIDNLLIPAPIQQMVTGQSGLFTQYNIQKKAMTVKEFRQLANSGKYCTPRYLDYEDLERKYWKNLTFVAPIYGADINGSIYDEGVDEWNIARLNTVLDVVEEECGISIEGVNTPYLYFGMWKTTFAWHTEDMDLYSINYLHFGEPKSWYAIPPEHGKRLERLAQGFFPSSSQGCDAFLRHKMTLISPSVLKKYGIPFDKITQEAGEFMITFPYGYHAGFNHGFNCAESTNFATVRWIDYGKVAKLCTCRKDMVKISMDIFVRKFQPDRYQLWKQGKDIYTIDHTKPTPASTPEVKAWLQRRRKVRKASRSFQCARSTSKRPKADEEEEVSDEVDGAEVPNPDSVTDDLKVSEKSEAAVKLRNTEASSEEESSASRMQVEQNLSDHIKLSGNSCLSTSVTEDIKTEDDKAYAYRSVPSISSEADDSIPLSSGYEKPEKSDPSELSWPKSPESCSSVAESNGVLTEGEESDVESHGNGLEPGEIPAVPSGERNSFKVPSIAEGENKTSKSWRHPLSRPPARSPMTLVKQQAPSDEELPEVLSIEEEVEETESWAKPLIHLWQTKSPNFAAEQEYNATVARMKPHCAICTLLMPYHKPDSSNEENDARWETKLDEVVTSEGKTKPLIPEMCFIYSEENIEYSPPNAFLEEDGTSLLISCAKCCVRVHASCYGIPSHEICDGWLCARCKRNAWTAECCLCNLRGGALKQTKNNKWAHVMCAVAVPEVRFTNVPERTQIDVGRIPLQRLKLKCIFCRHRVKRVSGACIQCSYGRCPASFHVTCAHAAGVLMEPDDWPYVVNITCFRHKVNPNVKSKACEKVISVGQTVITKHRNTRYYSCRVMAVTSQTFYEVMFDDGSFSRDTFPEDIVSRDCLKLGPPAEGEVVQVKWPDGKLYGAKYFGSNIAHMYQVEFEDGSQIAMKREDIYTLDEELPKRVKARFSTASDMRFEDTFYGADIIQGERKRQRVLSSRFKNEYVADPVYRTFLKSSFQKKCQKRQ

[5] = read-out: HBeAg EC50, D 8, PHH donor 8181, virus 21p
[6] = read-out: HBeAg EC50, D 13, PHH donor 8181, virus 21p
[7] = read-out: HBeAg EC50, D 17, PHH donor 8181, virus 21p
[8] = read-out: HBeAg EC50, D 22, PHH donor 8181, virus 21p
[9] = read-out: HBeAg EC50, D 27, PHH donor 8181, virus 21p
[10] = read-out: HBeAg EC50, HBV-infected PHH
[11] = read-out: HBsAg EC50, D 8, PHH donor 8181, virus 21p
[12] = read-out: HBsAg EC50, D 13, PHH donor 8181, virus 21p
[13] = read-out: HBsAg EC50, D 17, PHH donor 8181, virus 21p
[14] = read-out: HBsAg EC50, D 22, PHH donor 8181, virus 21p
[15] = read-out: HBsAg EC50, D 27, PHH donor 8181, virus 21p
[16] = read-out: HBsAg EC50, HBV-infected PHH

KDM5A, sequence (P29375 whole entry): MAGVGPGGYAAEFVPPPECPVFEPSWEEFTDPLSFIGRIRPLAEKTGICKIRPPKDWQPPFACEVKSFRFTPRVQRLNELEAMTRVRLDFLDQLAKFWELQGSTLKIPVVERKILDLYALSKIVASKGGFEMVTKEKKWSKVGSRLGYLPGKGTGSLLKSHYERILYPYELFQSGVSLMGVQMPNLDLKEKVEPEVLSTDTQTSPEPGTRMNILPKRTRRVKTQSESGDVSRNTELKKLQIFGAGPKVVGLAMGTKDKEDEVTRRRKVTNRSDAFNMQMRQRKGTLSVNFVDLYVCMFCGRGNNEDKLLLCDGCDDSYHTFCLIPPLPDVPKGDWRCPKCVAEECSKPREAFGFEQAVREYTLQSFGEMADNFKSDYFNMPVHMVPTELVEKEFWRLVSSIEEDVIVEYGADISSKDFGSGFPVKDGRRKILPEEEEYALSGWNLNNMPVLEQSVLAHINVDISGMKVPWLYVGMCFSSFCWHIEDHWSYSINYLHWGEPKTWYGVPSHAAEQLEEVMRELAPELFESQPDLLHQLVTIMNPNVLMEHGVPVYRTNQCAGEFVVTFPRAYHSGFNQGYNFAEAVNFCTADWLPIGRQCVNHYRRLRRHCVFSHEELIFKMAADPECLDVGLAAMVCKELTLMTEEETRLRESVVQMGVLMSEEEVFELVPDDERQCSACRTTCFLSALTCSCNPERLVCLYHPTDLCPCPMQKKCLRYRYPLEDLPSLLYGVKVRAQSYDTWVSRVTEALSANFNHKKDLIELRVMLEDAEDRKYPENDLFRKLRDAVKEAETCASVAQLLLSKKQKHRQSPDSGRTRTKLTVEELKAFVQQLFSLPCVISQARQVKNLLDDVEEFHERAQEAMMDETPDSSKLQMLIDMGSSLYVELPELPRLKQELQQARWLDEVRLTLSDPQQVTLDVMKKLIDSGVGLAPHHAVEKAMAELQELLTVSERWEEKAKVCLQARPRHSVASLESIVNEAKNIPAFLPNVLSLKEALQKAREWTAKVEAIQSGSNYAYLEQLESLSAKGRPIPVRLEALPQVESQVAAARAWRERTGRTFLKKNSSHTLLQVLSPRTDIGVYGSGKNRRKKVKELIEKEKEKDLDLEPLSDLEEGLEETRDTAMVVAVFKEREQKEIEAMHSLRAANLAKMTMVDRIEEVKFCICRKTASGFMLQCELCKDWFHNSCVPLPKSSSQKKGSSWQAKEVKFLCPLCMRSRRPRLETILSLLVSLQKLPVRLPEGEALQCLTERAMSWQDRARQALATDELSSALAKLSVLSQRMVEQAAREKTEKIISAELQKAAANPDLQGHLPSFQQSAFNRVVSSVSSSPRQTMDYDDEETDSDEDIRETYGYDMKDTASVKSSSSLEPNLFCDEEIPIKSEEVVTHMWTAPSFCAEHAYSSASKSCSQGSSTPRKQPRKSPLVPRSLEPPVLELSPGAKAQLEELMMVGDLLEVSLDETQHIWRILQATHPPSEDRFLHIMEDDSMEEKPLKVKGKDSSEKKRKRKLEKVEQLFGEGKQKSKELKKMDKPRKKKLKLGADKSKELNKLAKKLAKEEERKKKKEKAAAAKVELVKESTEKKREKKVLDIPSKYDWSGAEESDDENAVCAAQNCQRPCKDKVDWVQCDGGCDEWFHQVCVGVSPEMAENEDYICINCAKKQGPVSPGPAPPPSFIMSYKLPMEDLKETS
T1 sequence (Q9UGL1 whole entry): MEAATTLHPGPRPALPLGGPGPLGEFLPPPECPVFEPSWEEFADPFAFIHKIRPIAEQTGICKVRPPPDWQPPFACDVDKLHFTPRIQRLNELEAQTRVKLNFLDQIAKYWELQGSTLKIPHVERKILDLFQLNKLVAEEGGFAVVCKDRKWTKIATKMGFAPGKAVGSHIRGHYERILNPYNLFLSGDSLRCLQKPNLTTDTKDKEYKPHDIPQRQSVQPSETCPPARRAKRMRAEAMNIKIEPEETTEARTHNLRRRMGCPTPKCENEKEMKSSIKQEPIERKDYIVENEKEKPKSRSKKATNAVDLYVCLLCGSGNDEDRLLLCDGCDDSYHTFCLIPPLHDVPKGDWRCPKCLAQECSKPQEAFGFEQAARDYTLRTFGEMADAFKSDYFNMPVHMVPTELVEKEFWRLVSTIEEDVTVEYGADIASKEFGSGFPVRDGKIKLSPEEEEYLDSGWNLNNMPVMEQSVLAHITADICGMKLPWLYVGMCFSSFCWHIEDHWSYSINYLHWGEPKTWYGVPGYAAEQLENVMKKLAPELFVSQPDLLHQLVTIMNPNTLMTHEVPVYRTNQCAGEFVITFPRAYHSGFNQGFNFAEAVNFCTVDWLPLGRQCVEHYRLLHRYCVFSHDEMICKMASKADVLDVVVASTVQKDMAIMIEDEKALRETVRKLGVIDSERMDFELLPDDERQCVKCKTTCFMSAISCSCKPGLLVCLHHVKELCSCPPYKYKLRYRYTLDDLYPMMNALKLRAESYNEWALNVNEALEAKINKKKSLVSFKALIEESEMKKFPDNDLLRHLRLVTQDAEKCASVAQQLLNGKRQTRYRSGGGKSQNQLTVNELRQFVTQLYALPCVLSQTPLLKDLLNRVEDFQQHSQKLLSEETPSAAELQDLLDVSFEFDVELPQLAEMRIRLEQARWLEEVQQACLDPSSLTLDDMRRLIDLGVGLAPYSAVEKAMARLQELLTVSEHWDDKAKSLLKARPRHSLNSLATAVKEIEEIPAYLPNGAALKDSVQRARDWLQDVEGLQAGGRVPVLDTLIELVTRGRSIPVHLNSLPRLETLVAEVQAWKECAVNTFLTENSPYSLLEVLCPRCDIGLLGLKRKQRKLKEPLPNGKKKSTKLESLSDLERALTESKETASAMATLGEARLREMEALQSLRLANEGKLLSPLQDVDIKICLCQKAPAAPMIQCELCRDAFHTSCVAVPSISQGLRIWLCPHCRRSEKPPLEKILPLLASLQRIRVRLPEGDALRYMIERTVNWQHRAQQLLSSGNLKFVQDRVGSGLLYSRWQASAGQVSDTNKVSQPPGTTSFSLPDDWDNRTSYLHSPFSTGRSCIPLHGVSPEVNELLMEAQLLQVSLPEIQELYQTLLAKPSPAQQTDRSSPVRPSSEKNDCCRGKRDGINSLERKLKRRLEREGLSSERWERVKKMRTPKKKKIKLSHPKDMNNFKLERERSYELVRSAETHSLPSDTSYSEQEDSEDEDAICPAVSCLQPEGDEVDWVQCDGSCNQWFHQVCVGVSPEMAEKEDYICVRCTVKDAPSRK

Nc1c(C(=O)O)ccnc1C(=O)O [Example 7, reference compound]
EC50 [1, 5]: > 50000 nM
EC50 [1, 6]: 4030 nM
EC50 [1, 7]: 1100 nM
EC50 [1, 8]: 90 nM
EC50 [1, 9]: 60 nM
EC50 ([1]; read-out: HBeAg EC50, D 31, PHH donor 8181, virus 21p): 60 nM
EC50 [1, 10]: 642 nM
EC50 [1, 11]: > 50000 nM
EC50 [1, 12]: 990 nM
EC50 [1, 13]: 580 nM
EC50 [1, 14]: 70 nM
EC50 [1, 15]: 60 nM
EC50 ([1]; read-out: HBsAg EC50, D 31, PHH donor 8181, virus 21p): 60 nM
EC50 [1, 16]: 481 nM
time dependency of anti HBV activity [1]: time dependent
IC50 [2]: 510 nM
IC50 [3]: 1200 nM
IC50 [4]: 110 nM

CCN(CCN(C)C)C(=O)CNCc1cc(C(=O)O)ccn1 [Example 9]
EC50 [1, 5]: > 100000 nM
EC50 [1, 6]: 849 nM
EC50 [1, 7]: 267 nM
EC50 [1, 8]: 153 nM
EC50 [1, 9]: 300 nM
EC50 [1, 10]: 1630 nM
EC50 [1, 11]: > 100000 nM
EC50 [1, 12]: 2330 nM
EC50 [1, 13]: 369 nM
EC50 [1, 14]: 200 nM
EC50 [1, 15]: 400 nM
EC50 [1, 16]: 2020 nM
time dependency of anti HBV activity [1]: time dependent
IC50 [2]: 14 nM
IC50 [3]: 24 nM
IC50 [4]: 57 nM

Cc1cc(Cl)ccc1COc1ccnn1-c1cc(C(=O)O)ccn1 [Example 11]
EC50 [1, 10]: 5770 nM
EC50 [1, 16]: 4050 nM
IC50 [2]: 36 nM
IC50 [3]: 28 nM
IC50 [4]: 110 nM

O=C(O)c1ccncc1Nc1nn(CCN2CCC(F)(F)CC2)c2ccc(F)cc12 [Example 13]
EC50 [1, 10]: 5970 nM
EC50 [1, 16]: 3980 nM
IC50 [2]: 21 nM
IC50 [3]: 21 nM
IC50 [4]: 260 nM

N#CNC(=O)c1ccncc1Nc1nn(CCN2CCC(F)(F)CC2)c2ccc(F)cc12 [Example 14]
EC50 [1, 10]: 1090 nM
EC50 [1, 16]: 1300 nM
IC50 [2]: 14 nM
IC50 [3]: 29 nM
IC50 [4]: 3100 nM

CCN(CC)CCCCNCc1cc(C(=O)O)ccn1 [Example 18]
EC50 [1, 10]: 22600 nM
EC50 [1, 16]: 19500 nM
IC50 [2]: 3.1 nM
IC50 [3]: 11 nM
IC50 [4]: 350 nM
